Laboratory results: the Kinase Knowledgebase extract (Sharma et al. 2016)

Biological target: CDK2 (human) (UniProt P24941)
Assay: Enzyme Assay
Conditions: not given

Ki | SMILES
4.4 nM | Nc1nc(NC2CCN(S(=O)(=O)CCCn3cncn3)CC2)sc1C(=O)c1c(F)cccc1F

Same assay, conditions: concentration not given here

SMILES | inhibition
Nc1cccc(CC(=O)N2CCC(Nc3nc(N)c(C(=O)c4c(F)cccc4F)s3)CC2)c1 | 61%
COc1ccc(C(=O)N2CCC(Nc3nc(N)c(C(=O)c4c(F)cccc4F)s3)CC2)c(OC)c1 | -11%
Cc1ccc(F)cc1C(=O)N1CCC(Nc2nc(N)c(C(=O)c3c(F)cccc3F)s2)CC1 | 52%
Nc1nc(NC2CCN(C(=O)[C@H](O)C3CCCCC3)CC2)sc1C(=O)c1c(F)cccc1F | 25%
Nc1nc(NC2CCN(C(=O)c3ccc(-c4ccccc4)cc3)CC2)sc1C(=O)c1c(F)cccc1F | -11%
COc1ccc2oc(C(=O)N3CCC(Nc4nc(N)c(C(=O)c5c(F)cccc5F)s4)CC3)cc2c1 | 61%
CC(C)(C(=O)N1CCC(Nc2nc(N)c(C(=O)c3c(F)cccc3F)s2)CC1)c1ccccc1 | 33%
C=CCSc1ncccc1C(=O)N1CCC(Nc2nc(N)c(C(=O)c3c(F)cccc3F)s2)CC1 | 48%
CCc1ccc2[nH]c(C(=O)N3CCC(Nc4nc(N)c(C(=O)c5c(F)cccc5F)s4)CC3)cc2c1 | 74%
CCOc1cccc(C(=O)N2CCC(Nc3nc(N)c(C(=O)c4c(F)cccc4F)s3)CC2)c1 | 75%
Nc1nc(NC2CCN(C(=O)[C@H](O)Cc3ccccc3)CC2)sc1C(=O)c1c(F)cccc1F | 42%
Cc1ccc(C2(C(=O)N3CCC(Nc4nc(N)c(C(=O)c5c(F)cccc5F)s4)CC3)CC2)cc1 | 41%
Nc1nc(NC2CCN(C(=O)c3ccnc4ccccc34)CC2)sc1C(=O)c1c(F)cccc1F | 10%
Cc1ccc(C(=O)/C=C/C(=O)N2CCC(Nc3nc(N)c(C(=O)c4c(F)cccc4F)s3)CC2)cc1 | 78%
CN1CCC[C@H]1C(=O)N1CCC(Nc2nc(N)c(C(=O)c3c(F)cccc3F)s2)CC1 | 39%
Nc1nc(NC2CCN(C(=O)COc3ccc(F)cc3)CC2)sc1C(=O)c1c(F)cccc1F | 83%
Nc1nc(NC2CCN(C(=O)c3ccccn3)CC2)sc1C(=O)c1c(F)cccc1F | 67%
COc1cc(C)ccc1C(=O)N1CCC(Nc2nc(N)c(C(=O)c3c(F)cccc3F)s2)CC1 | 59%
Nc1nc(NC2CCN(C(=O)c3ccc4ccccc4c3)CC2)sc1C(=O)c1c(F)cccc1F | 38%
Cc1cc(C(=O)N2CCC(Nc3nc(N)c(C(=O)c4c(F)cccc4F)s3)CC2)ccc1Cl | 51%

SMILES | inhibition
CCSc1ncccc1C(=O)N1CCC(Nc2nc(N)c(C(=O)c3c(F)cccc3F)s2)CC1 | 38%
Cc1ccc(OCC(=O)N2CCC(Nc3nc(N)c(C(=O)c4c(F)cccc4F)s3)CC2)c(C)c1 | 51%
C[C@H]1CC[C@H](C(=O)N2CCC(Nc3nc(N)c(C(=O)c4c(F)cccc4F)s3)CC2)CC1 | 65%
COc1ccc(C2(C(=O)N3CCC(Nc4nc(N)c(C(=O)c5c(F)cccc5F)s4)CC3)CC2)cc1 | 37%
Nc1nc(NC2CCN(C(=O)COc3cccc(Cl)c3)CC2)sc1C(=O)c1c(F)cccc1F | 67%
Nc1nc(NC2CCN(C(=O)c3ccc(F)c(F)c3)CC2)sc1C(=O)c1c(F)cccc1F | 56%
COC1CCCC(C(=O)N2CCC(Nc3nc(N)c(C(=O)c4c(F)cccc4F)s3)CC2)C1 (centres undefined) | 63%
Nc1nc(NC2CCN(C(=O)[C@@H]3CCC(=O)O3)CC2)sc1C(=O)c1c(F)cccc1F | 95%
CO[C@@](C(=O)N1CCC(Nc2nc(N)c(C(=O)c3c(F)cccc3F)s2)CC1)(c1ccccc1)C(F)(F)F | -6%
COc1ccc2[nH]c(C(=O)N3CCC(Nc4nc(N)c(C(=O)c5c(F)cccc5F)s4)CC3)cc2c1 | 35%
COc1ccc(C(=O)N2CCC(Nc3nc(N)c(C(=O)c4c(F)cccc4F)s3)CC2)cc1OC | -23%
Cn1c(C(=O)N2CCC(Nc3nc(N)c(C(=O)c4c(F)cccc4F)s3)CC2)cc2ccccc21 | 61%
COc1cc(SC)ccc1C(=O)N1CCC(Nc2nc(N)c(C(=O)c3c(F)cccc3F)s2)CC1 | 22%
COc1ccccc1/C=C\C(=O)N1CCC(Nc2nc(N)c(C(=O)c3c(F)cccc3F)s2)CC1 | 70%
Nc1nc(NC2CCN(C(=O)/C=C/c3ccc(F)c(F)c3)CC2)sc1C(=O)c1c(F)cccc1F | 61%
CC(=O)N1CSC[C@H]1C(=O)N1CCC(Nc2nc(N)c(C(=O)c3c(F)cccc3F)s2)CC1 | 20%
Nc1nc(NC2CCN(C(=O)c3cccnc3Sc3ccc(Cl)cc3)CC2)sc1C(=O)c1c(F)cccc1F | -73%
Nc1nc(NC2CCN(C(=O)Cc3cc(F)cc(F)c3F)CC2)sc1C(=O)c1c(F)cccc1F | 44%
Nc1nc(NC2CCN(S(=O)(=O)c3ccc(Oc4ccncc4)cc3)CC2)sc1C(=O)c1c(F)cccc1F | -28%
COc1ccc(OCC(=O)N2CCC(Nc3nc(N)c(C(=O)c4c(F)cccc4F)s3)CC2)cc1 | 74%

The remaining lines, values ahead:

inhibition | SMILES
31% | CCCC(CC)CC(=O)N1CCC(Nc2nc(N)c(C(=O)c3c(F)cccc3F)s2)CC1 (centres undefined)
27% | CCCC/C=C/C(=O)N1CCC(Nc2nc(N)c(C(=O)c3c(F)cccc3F)s2)CC1
35% | CC(C)C(C)C(=O)N1CCC(Nc2nc(N)c(C(=O)c3c(F)cccc3F)s2)CC1 (centres undefined)
45% | COC(=O)CCCC(=O)N1CCC(Nc2nc(N)c(C(=O)c3c(F)cccc3F)s2)CC1
80% | Nc1nc(NC2CCN(C(=O)Cc3ccccn3)CC2)sc1C(=O)c1c(F)cccc1F
-10% | CC1CC1C(=O)N1CCC(Nc2nc(N)c(C(=O)c3c(F)cccc3F)s2)CC1 (centres undefined)
67% | C[C@H](O)C(=O)N1CCC(Nc2nc(N)c(C(=O)c3c(F)cccc3F)s2)CC1
-13% | CCOC(=O)N1CCC(Nc2nc(N)c(C(=O)c3c(F)cccc3F)s2)CC1
-42% | CCCCC(CC)COC(=O)N1CCC(Nc2nc(N)c(C(=O)c3c(F)cccc3F)s2)CC1 (centres undefined)
45% | CCCC[C@H]1CC[C@H](C(=O)N2CCC(Nc3nc(N)c(C(=O)c4c(F)cccc4F)s3)CC2)CC1
15% | CC(=O)CCC(=O)N1CCC(Nc2nc(N)c(C(=O)c3c(F)cccc3F)s2)CC1
-19% | CC(C)=CC(=O)N1CCC(Nc2nc(N)c(C(=O)c3c(F)cccc3F)s2)CC1
54% | CCOC(=O)CCC(=O)N1CCC(Nc2nc(N)c(C(=O)c3c(F)cccc3F)s2)CC1
38% | Cn1cccc1C(=O)N1CCC(Nc2nc(N)c(C(=O)c3c(F)cccc3F)s2)CC1
38% | Nc1nc(NC2CCN(C(=O)CCCc3ccccc3)CC2)sc1C(=O)c1c(F)cccc1F
22% | CCCC/C=C/CC(=O)N1CCC(Nc2nc(N)c(C(=O)c3c(F)cccc3F)s2)CC1
57% | CC(C)CC(O)C(=O)N1CCC(Nc2nc(N)c(C(=O)c3c(F)cccc3F)s2)CC1 (centres undefined)
36% | Nc1nc(NC2CCN(C(=O)CCCCc3ccccc3)CC2)sc1C(=O)c1c(F)cccc1F
41% | Cc1ccc(C)c(CCCC(=O)N2CCC(Nc3nc(N)c(C(=O)c4c(F)cccc4F)s3)CC2)c1
35% | CC(CC(=O)N1CCC(Nc2nc(N)c(C(=O)c3c(F)cccc3F)s2)CC1)CC(C)(C)C (centres undefined)
25% | CCC(C)(O)C(=O)N1CCC(Nc2nc(N)c(C(=O)c3c(F)cccc3F)s2)CC1 (centres undefined)
50% | CC(C)(O)C(=O)N1CCC(Nc2nc(N)c(C(=O)c3c(F)cccc3F)s2)CC1
35% | Cc1ccc(CCCC(=O)N2CCC(Nc3nc(N)c(C(=O)c4c(F)cccc4F)s3)CC2)c(C)c1
